Details: 101 kPa, Liquid, Vibrating tube method

C1CCC2=NCCCN2CC1 [1,8-diaza-7-bicyclo[5.4.0]undecene]
Details	mass density [kg/m3]
293.15 K	1019.84
298.15 K	1016.15
303.15 K	1012.45
308.15 K	1008.73
313.15 K	1005
318.15 K	1001.25
323.15 K	997.479
328.15 K	993.692
333.15 K	989.886
338.15 K	986.062
343.15 K	982.224
348.15 K	978.366
353.15 K	974.493
358.15 K	970.601

Source: the NIST ThermoML archive (doi:10.1016/j.fluid.2014.04.021)
